Paper PMC10531311, “Anti-Inflammatory Activities of 8-Benzylaminoxanthines Showing High Adenosine A2A and Dual A1/A2A Receptor Affinity” (International Journal of Molecular Sciences, 2023)

Experiments:
human adenosine A1R = target: T1, human adenosine A1R (Homo sapiens, UniProt P30542); assay: Radioligand binding at human adenosine A1 receptor vs. [3H]CCPA; conditions: human recombinant receptor in CHO cells; read-out: A1R vs. [³H]CCPA Ki ± SEM
T1 construct: expressed in transfected cells; host or cells: CHO cells
T1 sequence (P30542 1-326): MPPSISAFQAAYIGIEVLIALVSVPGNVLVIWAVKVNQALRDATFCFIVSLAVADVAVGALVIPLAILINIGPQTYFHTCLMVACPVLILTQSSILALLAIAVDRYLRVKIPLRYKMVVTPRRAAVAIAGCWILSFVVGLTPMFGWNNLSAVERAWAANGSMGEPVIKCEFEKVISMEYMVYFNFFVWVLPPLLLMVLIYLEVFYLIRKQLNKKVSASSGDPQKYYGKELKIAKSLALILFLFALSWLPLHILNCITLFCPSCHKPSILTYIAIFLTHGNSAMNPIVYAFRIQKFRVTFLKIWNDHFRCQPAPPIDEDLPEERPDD
Protocol: (§1) Affinities for adenosine receptors were evaluated in radioligand binding assays as previously described. Human adenosine receptors were stably expressed in CHO cells. The following radioligands were used: [^3H]2-chloro-N^6-cyclopentyladenosine ([^3H]CCPA) for A1R; [^3H]3-(3-hydroxypropyl)-7-methyl-8-(m-methoxystyryl)-1-propargylxanthine ([^3H]MSX-2) for A2AR; [^3H]8-(4-(4-(4-chlorophenyl)piperazine-1-sulfonyl)phenyl)-1-propylxanthine ([^3H]PSB-603) for A2BR; [^3H]phenyl-8-ethyl-4-methyl-(8R)-4,5,7,8-tetrahydro-1H-imidazo [2,1-i]purine-5-one ([^3H]PSB-11) for A3R. Initially, compounds were tested at a concentration of 1 µM. […] At least three independent experiments were performed. Data were analyzed using GraphPad PRISM version 5.0 or higher (Graph Pad, San Diego, CA, USA). Ki were calculated using the Cheng–Prusoff equation.

SH-SY5Y cells = assay: Neurotoxicity, MTS cell viability; type: cell-based, human; conditions: 0.098 μM to 100 μM, 24 h
Protocol: Drug safety is a critical step in the process of drug development. […] In our studies, neurotoxicity and hepatotoxicity were evaluated in SH-SY5Y and HepG2 cells, respectively. The compounds were tested at 11 concentrations from 0.098 μM to 100 μM (see Figure 5). Cell viability was assessed after incubation for 24 h with the SH-SY5Y line and for 48 h with the HepG2 line.
To evaluate neurotoxicity and hepatotoxicity, the human neuroblastoma cell line SH-SY5Y (ATCC® no. CRL-2266™) and hepatoma cell line HepG2 (ATCC® no. HB-8065™) were used, respectively. The cells (SH-SY5Y: 5 × 10^3 cells/100μL/well and HepG2: 7 × 10^3 cells/100 μL/well) were seeded in transparent 96-well plates (Nunc) in DMEM supplemented with 10% FBS and cultured overnight. The next day, the medium was changed to medium containing dimethylsulfoxide (DMSO < 0.1%, vehicle control) or an increasing concentration of compounds MZ-1483 (19), MZ-1490 (22) and MZ-1495 (24) ([…]–100 × 10^−6 M). To perform dose-response analysis, two-fold serial dilutions (11 points) were prepared. Treatment with compounds was performed for 48 h. After the incubation time, the cell viability was examined using an MTS-based [3-(4,5-dimethylthiazol-2-yl)-5-(3-carboxymethoxyphenyl)-2-(4-sulfophenyl)-2 H tetrazolium] CellTiter96® AQueous One Solution Cell Proliferation Assay (Promega, Madison, WI, USA) following the manufacturer’s protocol. Briefly, 20 μL of MTS solution was pipetted into each well containing 100 μL of culture or culture medium (negative control) and incubated at 37 °C for 1 h. After incubation time, formazan product turnover absorbance was measured at 490 nm using the microplate reader (Tecan Spark®, Tecan Group Ltd., Maennedorf, Switzerland). A reference wavelength of 630 nm was used.

human MAO B = target: T2, human MAO B (Homo sapiens, UniProt P27338); assay: Human MAO B inhibition, fluorometric method; type: biochemical; conditions: mean of two independent experiments, read-out: % of hMAO B Inhibition at 1 µM
T2 sequence (P27338 1-520): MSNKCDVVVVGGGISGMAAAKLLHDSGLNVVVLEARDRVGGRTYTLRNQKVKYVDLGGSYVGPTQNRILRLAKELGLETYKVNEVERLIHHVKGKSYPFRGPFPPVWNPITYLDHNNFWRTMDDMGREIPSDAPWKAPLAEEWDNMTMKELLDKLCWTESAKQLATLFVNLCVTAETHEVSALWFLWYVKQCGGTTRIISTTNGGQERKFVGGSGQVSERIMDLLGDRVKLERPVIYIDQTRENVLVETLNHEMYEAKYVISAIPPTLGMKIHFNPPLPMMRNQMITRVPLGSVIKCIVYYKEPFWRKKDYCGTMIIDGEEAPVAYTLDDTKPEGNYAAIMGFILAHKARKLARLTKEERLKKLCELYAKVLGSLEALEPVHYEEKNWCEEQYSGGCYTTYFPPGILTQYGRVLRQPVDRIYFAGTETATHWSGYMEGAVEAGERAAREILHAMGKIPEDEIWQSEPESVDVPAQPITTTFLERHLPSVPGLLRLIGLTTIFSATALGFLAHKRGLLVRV
Protocol: The compounds were tested twice in duplicates at a concentration of 1 μM by fluorometric method as previously described. Paratyramine (200 μM) was used as a substrate for the enzyme. Safinamide (1 μM; reversible) and rasagiline (1 μM; irreversible) were used as reference inhibitors.

human adenosine A2BR = target: T3, human adenosine A2BR (Homo sapiens, UniProt P29275); assay: Radioligand binding at human adenosine A2B receptor vs. [3H]PSB-603; conditions: for inhibition at 1 µM: CHO cells, read-out: A2BR vs. [³H]PSB-603 % Inhibition ± SEM at 1 µM; for Ki: human recombinant receptor in CHO cells, read-out: A2BR vs. [³H]PSB-603 Ki ± SEM
T3 construct: expressed in transfected cells; host or cells: CHO cells
T3 sequence (P29275 1-332): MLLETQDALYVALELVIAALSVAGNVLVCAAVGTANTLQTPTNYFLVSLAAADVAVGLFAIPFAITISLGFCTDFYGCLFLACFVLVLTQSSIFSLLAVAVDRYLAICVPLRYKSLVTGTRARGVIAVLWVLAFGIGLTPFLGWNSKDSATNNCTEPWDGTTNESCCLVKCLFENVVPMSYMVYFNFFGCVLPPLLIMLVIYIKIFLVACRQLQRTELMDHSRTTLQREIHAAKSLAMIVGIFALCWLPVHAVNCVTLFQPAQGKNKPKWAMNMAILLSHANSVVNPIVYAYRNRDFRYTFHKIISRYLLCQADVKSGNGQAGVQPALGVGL
Protocol: as §1

Row | SMILES | Ki (human adenosine A1R) [µM] | neurotoxicity, cell viability (in words) (SH-SY5Y cells) | inhibition at 1 µM (human MAO B) [%] | inhibition at 1 µM (human adenosine A2BR) [%] | Ki (human adenosine A2BR) [µM]
1 | C#CCn1c(=O)c2c(nc(NCc3ccccc3Cl)n2C)n(C)c1=O [compound 19, 8-((2-Chlorobenzyl)amino)-3,7-dimethyl-1-(prop-2-yn-1-yl)-3,7-dihydro-1H-purine-2,6-dione] | 0.407 ± 0.075 | high safety profile | 6 | 14 | > 1
2 | C#CCn1c(=O)c2c(nc(NCc3c(F)cccc3Cl)n2C)n(C)c1=O [compound 22, 8-((2-Chloro-6-fluorobenzyl)amino)-3,7-dimethyl-1-(prop-2-yn-1-yl)-3,7-dihydro-1H-purine-2,6-dione] | 0.13 ± 0.034 | high safety profile | 7 | 41 | > 1
3 | C#CCn1c(=O)c2c(nc(NCc3cccc(Br)c3)n2C)n(C)c1=O [compound 24, 8-((3-Bromobenzyl)amino)-3,7-dimethyl-1-(prop-2-yn-1-yl)-3,7-dihydro-1H-purine-2,6-dione] | 0.072 ± 0.008 | high safety profile | 10 | 25 | > 1
